Experiments:
[1] = test system: Staphylococcus carnosus; assay: TAPS (Trans Acting Peptide System) assay, radial diffusion read-out; type: cell-based; parameters: key: classified as 4>3>2>1; whereas 4 is better than 1; classified as 4>3>2>1; classified as 4>3>2>1; wildtype activity corresponds to 1; details: peptide expressed in E. coli
Description: A range of antimicrobial polypeptides, which are variants of SEQ ID NO: 1, were tested in the TAPS assay. TAPS may be used to identify new or improved genes encoding peptides that can kill or inhibit the growth of target cells (see PCT application WO 2004/033715). The TAPS assay, an acronym for Trans Acting Peptide System, is based on having a sensitive host producing a peptide followed by screening for its activity in trans against an indicator strain. The advantage of this system is based on that the antimicrobial peptide is expressed in the Gram-negative bacterium E. coli and its antimicrobial activity can be monitored on different microbes including Gram-negatives, positives or fungi. Additionally, TAPS offers the possibility to produce correctly folded AMPs containing disulfide bonds in the host cells, thereby retaining their antimicrobial activities.
The TAPS approach requires first, that expression of the peptide is under control of an inducible promoter with tight regulation, because the host cells are sensitive to the peptide when producing it. Secondly, the produced peptide has to be released to the media so that it can interact with the target organism.
The TAPS screening can be carried out either in solid or liquid media. On solid media, a plasmid library is initially introduced into E. coli host cells. […] In the next step, the filter containing the colonies is transferred to LB growth medium containing inducer (0.1% arabinose) to permit peptide synthesis. Subsequently, the target strain, for example S. carnosus, is overlaid onto the plate and allowed to grow for 12-16 hours at 37° C. Finally, visual inspection of the host cells capable of reducing the proliferation of the target cells is performed and the nucleotide sequence encoding for the antimicrobial peptide is recovered from the host cells. DNA sequence analysis of the variants is obtained to elucidate the nature of the peptide.
As mentioned above, the TAPS screening can also be performed using liquid medium. This procedure requires the use of robotics to analyze large number of clones. In this system, the host E. coli origami cells are transformed with the plasmid library and plated out on LB medium+0.2% glucose+ampicillin (200 mg/L). Independent colonies are then inoculated into 96 or 384-well plates containing 200 micro-L of TB medium+ampicillin (200 mg/L) and cultured overnight at 37° C. These cultures are then replicated robotically and grown to exponential phase until inducer (0.1% arabinose) is added to trigger peptide synthesis. The next step consists in hydrolyzing the cells such that the peptide is released to the media by hot acid hydrolysis. This treatment consists on adding 1 M sodium Phosphate buffer pH 2.3 to obtain a final pH approximately of 2.3 and incubating the cultures overnight at 80° C. Next day, a 25 micro-L aliquot of the hydrolyzed cultures is used to perform an activity test against the desired target organisms. The activity test performed was a Radial Diffusion Assay (RDA) where an aliquot of the hydrolyzed cultures was added to the agarose media inoculated with the target strain, S. carnosus. […] Measurements of the diameter of the clearing zones were performed to quantify the potency of the antimicrobial activity of the peptides.
The antimicrobial activity (against Staphylococcus carnosus) of the tested plectasin variants, which was measured using the TAPS assay, is shown in table 3. The antimicrobial activity corresponds to the clearing zone size and has been classified as 4>3>2>1; whereas 4 is better than 1, and wildtype activity corresponds to 1.

[2] = test system: S. aureus; assay: Minimal Inhibitory Concentration, NCCLS guidelines (Example 4); type: cell-based, Staphylococcus aureus; details: purified peptide
Description: (§1) The Minimal Inhibitory Concentration (MIC, micrograms/mL) was determined to test for their antimicrobial activity following the NCCLS guidelines (Clinical and Laboratory Standards Institute; formerly known as National Committee for Clinical and Laboratory Standards).

[3] = test system: M. luteus; assay: as above; type: cell-based, Micrococcus luteus; details: purified peptide
Description: as §1

[4] = test system: B. subtilis; assay: as above; type: cell-based, Bacillus subtilis; details: purified peptide
Description: as §1

[5] = test system: panel of 6 different strains of Staphylococcus aureus; assay: Average MIC, NCCLS/CLSI guidelines using caMHB (Example 6); type: cell-based; details: average over 6 S. aureus strains, duplicate; MIC above 32 counted as 64; read after 18-24 hours at 37° C.
Outline: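 Six Staphylococcus aureus strains, MSSA and MRSA, were exposed in duplicate to peptide dilutions from 32 down to 0.03 microgram/mL in caMHB following CLSI guidance. Growth was scored after 18-24 h incubation at 37° C. The tabulated value is the mean MIC, with 64 used for any MIC >32 micrograms/mL.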

[6] = test system: Staphylococcus aureus, ATCC 29213; assay: MIC, NCCLS/CLSI guidelines (Example 5), strain A; type: cell-based; details: relative to wildtype Plectasin; average of two independent experiments
Outline: (§2)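 Relative MIC category versus wild-type plectasin (0 >100%, 1 80-100%, 2 50-80%, 3 <50%), mean of two experiments. Determined per CLSI broth guidelines with expressed, purified peptides.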

[7] = test system: Staphylococcus aureus, ATCC 25923; assay: MIC, NCCLS/CLSI guidelines (Example 5), strain B; type: cell-based; details: relative to wildtype Plectasin; average of two independent experiments
Outline: as §2

[8] = test system: Staphylococcus aureus, ATCC 29737; assay: MIC, NCCLS/CLSI guidelines (Example 5), strain C; type: cell-based; details: relative to wildtype Plectasin; average of two independent experiments
Outline: as §2

[9] = test system: Staphylococcus aureus, MRSA ST5 (2001); assay: MIC, NCCLS/CLSI guidelines (Example 5), strain D; type: cell-based; details: relative to wildtype Plectasin; average of two independent experiments
Outline: (§3)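 Recombinant plectasin variants, expressed and purified; MIC per NCCLS/CLSI; n=2 independent expts, averaged; reported as category vs wild-type MIC (0 >100%, 1 80-100%, 2 50-80%, 3 <50%).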

[10] = test system: Staphylococcus aureus, MRSA ST80 (2003); assay: MIC, NCCLS/CLSI guidelines (Example 5), strain E; type: cell-based; details: relative to wildtype Plectasin; average of two independent experiments
Outline: as §3

[11] = test system: B. subtilis; assay: Minimal Effective Concentration (MEC) assay; type: cell-based, Bacillus subtilis
Description: (§4) Three antimicrobial polypeptides, which are variants of SEQ ID NO: 1, were tested for antimicrobial activity. A Minimal Effective Concentration assay (MEC, expressed as micrograms/mL) against different microorganisms was performed using the three plectasin mutants, Y40YR, N17R and Y25R following the protocol described in the book of Methods in Molecular Biology, Vol. 78, Antibacterial peptide protocol William M. Shafer, Human Press.

[12] = test system: M. luteus; assay: Minimal Effective Concentration (MEC) assay; type: cell-based, Micrococcus luteus
Description: as §4

[13] = test system: S. epidermis; assay: Minimal Effective Concentration (MEC) assay; type: cell-based, Staphylococcus epidermidis
Description: as §4

Row | Substance | Activity (antimicrobial activity, clearing zone size) [1] | MIC against S. aureus [2] | MIC against M. luteus [3] | MIC against B. subtilis [4] | Average MIC [5] | Relative MIC, strain A [6] | Relative MIC, strain B [7] | Relative MIC, strain C [8] | Relative MIC, strain D [9] | Relative MIC, strain E [10] | MEC against B. subtilis [11] | MEC against M. luteus [12] | MEC against S. epidermis [13]
1 | GFGCNGPWDEDDKQCHNHCKSIKGYKGGYCAKGGFVCKCYR [M13K + Y40YR] | 4 | 2 micrograms/mL | 2 micrograms/mL | 0.25 micrograms/mL | 12 micrograms/mL | – | – | – | – | – | – | – | –
2 | GFGCNGPWDEDDKQCHNHCKSIKGYKGGYCAKGGFVCRCY [M13K + K38R] | 4 | – | – | – | 6 micrograms/mL | 1 (80-100% of Plectasin wildtype MIC) | 3 (<50% of Plectasin wildtype MIC) | 3 (<50% of Plectasin wildtype MIC) | 2 (50-80% of Plectasin wildtype MIC) | 3 (<50% of Plectasin wildtype MIC) | – | – | –
3 | GFGCNGPWDEDDMLCHNHCKSIKGYKGGYCAKGGFVCKCY [Mutation Q14L] | 4 | – | – | – | 13 micrograms/mL | – | – | – | – | – | – | – | –
4 | GFGCNGPWDEDDMQCHIHCKSIKGYKGGYCAKGGFVCKCY [Mutation N17I] | 2 | – | – | – | 14 micrograms/mL | – | – | – | – | – | – | – | –
5 | GFGCNGPWDEDDMQCHNHCKSIKGYKGGYCAKGGFVCKCYR [Mutation Y40YR] | 2 | – | – | – | – | – | – | – | – | – | 0.05 micrograms/mL | 0.18 micrograms/mL | 0.31 micrograms/mL
6 | GFGCNGPWDEDDMQCHNHCKSIKGYRGGYCAKGGFVCKCY [Mutation K26R] | 3 | – | – | – | 15 micrograms/mL | – | – | – | – | – | – | – | –
7 | GFGCNGPWDEDDMQCHYHCKSIKGYKGGYCAKGGFVCKCY [Mutation N17Y] | 3 | – | – | – | 6 micrograms/mL | 1 (80-100% of Plectasin wildtype MIC) | 3 (<50% of Plectasin wildtype MIC) | 3 (<50% of Plectasin wildtype MIC) | 2 (50-80% of Plectasin wildtype MIC) | 2 (50-80% of Plectasin wildtype MIC) | – | – | –
8 | GFGCNGPWDEDDMRCHNHCKSIKGYKGGYCAKGGFVCKCY [Mutation Q14R] | 4 | – | – | – | 5 micrograms/mL | 2 (50-80% of Plectasin wildtype MIC) | 3 (<50% of Plectasin wildtype MIC) | 3 (<50% of Plectasin wildtype MIC) | 3 (<50% of Plectasin wildtype MIC) | 0 (>100% of Plectasin wildtype MIC) | – | – | –
9 | GFGCNGPWDEDDMRCHNHCKSIKGYRGGYCAKGGFVCKCY [Q14R + K26R] | 4 | – | – | – | 5 micrograms/mL | – | – | – | – | – | – | – | –
10 | GFGCNGPWDEGDKQCHNHCKSIKGYRGGYCAKGGFVCKCYR [D11G + M13K + K26R + Y40YR] | 4 | 0.50 micrograms/mL | 0.50 micrograms/mL | <0.03 micrograms/mL | 12 micrograms/mL | – | – | – | – | – | – | – | –
11 | GFGCNGPWDEGDMQCHNHCKSIKGYRGGYCAKGGFVCKCY [D11G + K26R] | 2 | 2 micrograms/mL | 8 micrograms/mL | 0.50 micrograms/mL | 11 micrograms/mL | – | – | – | – | – | – | – | –
12 | GFGCNGPWDEGDMQCHNHCKSIKGYRGGYCAKGGFVCKCYR (Synthetic antimicrobial polypeptide) [D11G + K26R + Y40YR] | 4 | 0.50 micrograms/mL | 0.25 micrograms/mL | 0.06 micrograms/mL | 9 micrograms/mL | 3 (<50% of Plectasin wildtype MIC) | 3 (<50% of Plectasin wildtype MIC) | 3 (<50% of Plectasin wildtype MIC) | 3 (<50% of Plectasin wildtype MIC) | – | – | – | –
13 | Q14K + K26R: variant of Plectasin (SEQ ID NO: 1) (GFGCNGPWDEDDMKCHNHCKSIKGYRGGYCAKGGFVCKCY) | – | 2 micrograms/mL | 1 micrograms/mL | 0.13 micrograms/mL | 6 micrograms/mL | 3 (<50% of Plectasin wildtype MIC) | 2 (50-80% of Plectasin wildtype MIC) | 3 (<50% of Plectasin wildtype MIC) | 3 (<50% of Plectasin wildtype MIC) | 3 (<50% of Plectasin wildtype MIC) | – | – | –
14 | Y25R (GFGCNGPWDEDDMQCHNHCKSIKGRKGGYCAKGGFVCKCY) [Mutation Y25R] | – | – | – | – | – | – | – | – | – | – | 0.04 micrograms/mL | 1.40 micrograms/mL | –

Reference: US20100120690A1, “Polypeptides Having Antimicrobial Activity and Polynucleotides Encoding Same” (Novozymes Adenium Biotech A/S, priority 2005, published 2010)
